The record followed here is ChEMBL document CHEMBL3091344, “17(E)-picolinylidene androstane derivatives as potential inhibitors of prostate cancer cell growth: antiproliferative activity and molecular docking studies” (Bioorg Med Chem, 2013).

In assay [1] the test system is MRC5. Put plainly: Cytotoxicity against human MRC5 cells assessed as growth inhibition after 48 hrs by MTT assay. The conditions noted are these: MRC5, 48 h. Format: cell-based. Background: Tetrazolium assays rely on reduction of a dye to a coloured formazan, in cell work by metabolically active cells.
Assay [2] deals with HT-29. Put plainly: Cytotoxicity against human HT-29 cells assessed as growth inhibition after 48 hrs by MTT assay. Format: functional, cell-based. Particulars: HT-29, 48 h.
Assay [3] deals with HeLa. Put plainly: Cytotoxicity against human HeLa cells assessed as growth inhibition after 48 hrs by MTT assay. Format: functional, cell-based.
The subject of assay [4] is PC-3. Put plainly: Cytotoxicity against human PC3 cells assessed as growth inhibition after 48 hrs by MTT assay. The assay is classed as functional, cell-based. The conditions noted are these: PC-3, 48 h.
The subject of assay [5] is MDA-MB-231. Put plainly: Cytotoxicity against ER-negative human MDA-MB-231 cells assessed as growth inhibition after 48 hrs by MTT assay. The assay is classed as functional, cell-based. Particulars: MDA-MB-231, 48 h.
The subject of assay [6] is MCF7. Put plainly: Cytotoxicity against ER-positive human MCF7 cells assessed as growth inhibition after 48 hrs by MTT assay. The assay is classed as functional, cell-based. The conditions noted are these: MCF7, 48 h.
For assay [7], the system named is MRC5. Put plainly: Cytotoxicity against human MRC5 cells assessed as growth inhibition after 48 hrs by SRB assay. Format: cell-based. Particulars: MRC5, 48 h.
Assay [8] concerns PC-3. Description: Cytotoxicity against human PC3 cells assessed as growth inhibition after 48 hrs by SRB assay. Format: functional, cell-based. The conditions noted are these: PC-3, 48 h.
For assay [9], the system named is MDA-MB-231. Put plainly: Cytotoxicity against ER-negative human MDA-MB-231 cells assessed as growth inhibition after 48 hrs by SRB assay. Format: functional, cell-based. The conditions noted are these: MDA-MB-231, 48 h.
Assay [10] concerns MCF7. Description: Cytotoxicity against ER-positive human MCF7 cells assessed as growth inhibition after 48 hrs by SRB assay. Particulars: MCF7, 48 h. Format: functional, cell-based. A general note: In SRB staining, fixed cells bind dye roughly in proportion to their protein.

As a reminder, the pIC50 is the IC50 on a negative log10 scale, so that one unit is a factor of ten.

The structures appear in SMILES notation. pIC50: −log10 of the molar value.

For the compound `C[C@]12CC/C(=N\N)C=C1CC[C@@H]1[C@@H]2CC[C@]2(C)/C(=C/c3ccccn3)CC[C@@H]12`, the pIC50 in [1] was under 4.00; in assay [2], 4.29; in [3], under 4.00; in assay [4] it was 5.23; in assay [5], 4.77; in assay [6], 4.87.

For the compound `C[C@]12CC[C@H]3[C@@H](CC[C@@]4(O)C=CCC[C@]34C)[C@@H]1CC[C@@]2(O)Cc1ccccn1`, the pIC50 in assay [1], in [2], in [3], in assay [4], in assay [5] and in assay [6] was under 4.00 throughout.

On to `C[C@]12CC[C@H]3[C@@H](CC[C@]45O[C@H]4C(=O)CC[C@]35C)[C@@H]1CC[C@@]2(O)Cc1ccccn1`, for which the pIC50 was under 4.00 in [1], 4.18 in [4], 4.98 in assay [5] and under 4.00 in [6].

With `C[C@]12CCC(=O)C=C1CC[C@@H]1[C@@H]2CC[C@]2(C)/C(=C/c3ccccn3)CC[C@@H]12`, the pIC50 in [7] is under 4.00; in assay [8], 4.89; in [9], under 4.00; in assay [10], under 4.00.

As for `C[C@]12CC[C@H]3[C@@H](CC[C@]45O[C@H]4C(=O)CC[C@]35C)[C@@H]1CC/C2=C\c1ccccn1`, the pIC50 in [1] is under 4.00; in assay [4], 4.84; in assay [5], 4.05; in [6], 4.29.

For `C[C@]12CCC(=O)C=C1CC[C@@H]1[C@@H]2CC[C@@]2(C)[C@H]1CC[C@@]2(O)Cc1ccccn1`, the pIC50 in [7], in assay [8], in [9] and in assay [10] was under 4.00 each time.

For the compound `C#CCC[C@@]1(C)C(=O)CC[C@@H]2[C@@H]1CC[C@@]1(C)[C@H]2CC[C@@]1(O)Cc1ccccn1`, the pIC50 in [1] was under 4.00; in assay [2], 5.19; in [3], under 4.00; in assay [4] it was under 4.00; in [5], under 4.00; in assay [6], under 4.00.

As for `C[C@]12CC/C(=N\N)C=C1CC[C@@H]1[C@@H]2CC[C@@]2(C)[C@H]1CC[C@@]2(O)Cc1ccccn1`, the pIC50 in [1] was under 4.00; in assay [2], under 4.00; in assay [3], under 4.00; in assay [4], under 4.00; in [5], 4.49; in assay [6] it was 5.20.

Consider `C[C@]12CCC(=O)C(O)=C1CC[C@@H]1[C@@H]2CC[C@]2(C)C(=O)CC[C@@H]12` [FORMESTANE], for which the pIC50 in [1], in [2] and in assay [6] was under 4.00 throughout.

For `C[C@]12CC[C@H]3[C@@H](CC[C@@]4(O)C=CCC[C@]34C)[C@@H]1CC/C2=C\c1ccccn1`, the pIC50 in assay [1] was under 4.00; in assay [2], 4.24; in assay [3], 4.31; in assay [4], under 4.00; in assay [5], under 4.00; in [6] it was under 4.00.

As to `COc1cccc2c1C(=O)c1c(O)c3c(c(O)c1C2=O)C[C@@](O)(C(=O)CO)C[C@@H]3O[C@H]1C[C@H](N)[C@H](O)[C@H](C)O1` [DOXORUBICIN], the pIC50 in assay [2] is 6.49; in [6] it was 6.12.

Take `C[C@]12CC[C@H](O)CC1=CC[C@@H]1[C@@H]2CC[C@]2(C)C(c3cccnc3)=CC[C@@H]12` [ABIRATERONE]: the pIC50 in [4] was 5.03.
